Molecular target: Large T antigen (Simian virus 40, UniProt P03070)
Test: SV40 large T antigen inhibitors, biochemical (AID 1903)

Chain of Large T antigen (P03070 whole entry): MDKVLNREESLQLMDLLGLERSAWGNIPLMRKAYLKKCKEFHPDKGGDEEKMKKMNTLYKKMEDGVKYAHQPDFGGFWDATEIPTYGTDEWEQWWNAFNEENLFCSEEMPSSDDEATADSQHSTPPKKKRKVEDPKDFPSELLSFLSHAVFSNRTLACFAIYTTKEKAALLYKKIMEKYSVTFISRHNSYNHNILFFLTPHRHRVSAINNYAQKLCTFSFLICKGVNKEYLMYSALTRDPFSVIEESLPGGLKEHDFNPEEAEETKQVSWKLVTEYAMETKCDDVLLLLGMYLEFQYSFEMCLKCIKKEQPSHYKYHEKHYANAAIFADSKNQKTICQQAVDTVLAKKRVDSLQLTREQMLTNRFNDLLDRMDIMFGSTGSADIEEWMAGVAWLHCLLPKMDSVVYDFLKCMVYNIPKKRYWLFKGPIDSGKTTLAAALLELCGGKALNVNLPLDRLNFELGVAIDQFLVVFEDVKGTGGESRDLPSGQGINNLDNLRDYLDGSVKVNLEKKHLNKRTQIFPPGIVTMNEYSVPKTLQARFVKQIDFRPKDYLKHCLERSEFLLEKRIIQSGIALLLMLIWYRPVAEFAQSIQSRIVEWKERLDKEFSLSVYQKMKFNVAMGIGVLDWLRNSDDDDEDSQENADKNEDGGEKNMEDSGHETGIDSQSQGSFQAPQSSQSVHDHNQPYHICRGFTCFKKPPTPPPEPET

Point of comparison: N#CC1C(=N)C2=C(N3CCCCC3)CCCC2C1(C#N)C#N (stereo unspecified) [3-Amino-4-piperidin-1-yl-5,6,7,7a-tetrahydro-indene-1,1,2-tricarbonitrile], IC50 9.99 µM. Against it:
- Cc1cc(-c2nc3c4c5c(sc4nc(=O)n3[nH]2)CCC5)c(C)o1 [MLS000048351] — 2.5-fold higher, 24.8 µM
- O=C1CCCC(=O)C1=CNc1ccc(O)cc1 [2-[(4-hydroxyanilino)methylidene]cyclohexane-1,3-dione] — within 1.5-fold, 12.3 µM
- O=C1CCCC2=Nc3[nH]c(=S)[nH]c(=O)c3C(c3ccc(Br)cc3)C12 (stereo unspecified) [5-(4-bromophenyl)-2-thioxo-2,3,5,8,9,10-hexahydropyrimido[4,5-b]quinoline-4,6(1H,7H)-dione] — 4.8-fold higher, 48.1 µM
- CN(C)c1ccc(NC(=O)c2cccc(-n3c(O)ccc3O)c2)cc1 [N-[4-(dimethylamino)phenyl]-3-(2,5-dioxopyrrolidin-1-yl)benzamide] — within 1.5-fold, 9.21 µM
- CN(C)c1ccc(N=CCC(=O)c2ccccc2)cc1 [(E)-3-[4-(dimethylamino)anilino]-1-phenyl-2-propen-1-one] — 1.9-fold lower, 5.19 µM
- CC1(C)CC(=O)C(=CNc2ccc(O)cc2)C(=O)C1 [SMR000024722] — 1.8-fold lower, 5.53 µM
- CCN(CC)CCN1C(=O)C(=O)C(C(=O)c2ccc(C)cc2)C1c1cccnc1 (stereo unspecified) [(4E)-1-[2-(diethylamino)ethyl]-4-[hydroxy-(4-methylphenyl)methylidene]-5-(3-pyridinyl)pyrrolidine-2,3-dione] — 1.9-fold higher, 18.9 µM
- COc1cc(-c2nc3c[nH]ccn-3c2=Nc2ccccc2)ccc1O [SMR000093145] — 2-fold lower, 5.05 µM
- Oc1ccc(-c2nc3c[nH]ccn-3c2=Nc2ccc3c(c2)OCCO3)cc1 [MLS000116162] — 2.4-fold lower, 4.14 µM
- Cc1ccc(Nc2oc3cc(=O)ccc-3cc2C(N)=O)cc1 [2-(4-methylanilino)-7-oxochromene-3-carboxamide] — 3.4-fold higher, 33.8 µM
